In article PMC11866022, “Long-Chain Cyclic Arylguanidines as Multifunctional Serotonin Receptor Ligands with Antiproliferative Activity” (ACS Omega, 2025):

Target: T1, 5-HT6 (Homo sapiens, UniProt P50406)
T1 construct: expressed in transfected cells; host or cells: HEK293
Assay: Radioligand binding assay, 5-HT6 ([3H]-LSD)
Details: HEK293 cell line with human 5-HT6R; 2 nM [3H]-LSD
Description: Ligand affinity for 5-HT6 receptors was subsequently tested with a radioligand binding assay, using the HEK293 cell line with human 5-HT6R, aiming to select compounds with the strongest affinity. Three compounds belonging to 2-naphthalenesulfonamide derivatives of 3,4-dihydroquinazolin-2-amines were obtained (Table 1).
The detailed procedure is presented in previous publications.[53] Assays were performed by incubating for 1 h at 37 °C (room temperature for 5-HT1A) in 200 μL volumes on 96-well plates. The reaction was terminated by rapid filtration using Unifilter plates, and radioactivity on the filters was measured with a PerkinElmer Microbeta plate reader. Radioligands used were:
Eight concentrations (10^–4 to 10^–11 M) were tested in triplicate for each compound. Inhibition constants (Ki) were calculated using the Cheng–Prusoff equation.[54] The results are expressed as the means of at least two independent experiments.

T1 sequence (P50406 whole entry): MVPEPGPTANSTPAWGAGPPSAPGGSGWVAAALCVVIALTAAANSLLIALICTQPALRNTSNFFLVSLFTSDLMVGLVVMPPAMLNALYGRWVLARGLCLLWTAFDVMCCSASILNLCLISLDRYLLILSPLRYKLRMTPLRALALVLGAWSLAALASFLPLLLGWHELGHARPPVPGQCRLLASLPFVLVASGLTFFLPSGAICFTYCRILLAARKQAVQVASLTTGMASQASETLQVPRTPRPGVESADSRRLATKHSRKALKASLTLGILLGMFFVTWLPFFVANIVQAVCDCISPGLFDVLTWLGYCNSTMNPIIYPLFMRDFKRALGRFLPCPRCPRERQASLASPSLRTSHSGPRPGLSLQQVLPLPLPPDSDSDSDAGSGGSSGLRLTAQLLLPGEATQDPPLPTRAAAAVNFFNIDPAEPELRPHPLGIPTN

Row | Compound | Ki [nM] | 5-HT6 Ki
1 | O=S(=O)(c1ccc2ccccc2c1)N1CCN(C2=Nc3ccccc3CN2)CC1 [PP 1, 2-[4-(Naphthalene-2-sulfonyl)piperazin-1-yl]-3,4-dihydroquinazoline] | 8660 ± 2160 | –
2 | O=S(=O)(NCCCCNC1=NCc2ccccc2N1)c1ccc2ccccc2c1 [PP 2, N-{4-[(1,4-Dihydroquinazolin-2-yl)amino]butyl}naphthalene-2-sulfonamide] | 616 ± 154 | –
3 | CC1NC(NCCNS(=O)(=O)c2cccc3ccccc23)=Nc2ccccc21 (stereo not shown) [PP 9, N-{2-[(4-Methyl-3,4-dihydroquinazolin-2-yl)amino]ethyl}naphthalene-1-sulfonamide] | 2420 ± 605 | –
4 | c1ccc2c(c1)CNC(NCCCCCCNc1nsc3ccccc13)=N2 [PP 23, N6-(1,2-Benzothiazol-3-yl)-N1-(3,4-dihydroquinazolin-2-yl)hexane-1,6-diamine] | 975 ± 244 | –

Second part, the compound after the results:

Row | Ki [nM] | 5-HT6 Ki | Compound
5 | 3490 ± 872 | – | O=S(=O)(c1cccc2ccccc12)N1CCN(C2=Nc3ccccc3CN2)CC1 [PP 5, 2-[4-(Naphthalene-1-sulfonyl)piperazin-1-yl]-3,4-dihydroquinazoline]
6 | 697 ± 174 | – | O=S(=O)(NCCCCNC1=Nc2ccccc2CN1)c1cccc2ccccc12 [PP 7, N-{4-[(3,4-Dihydroquinazolin-2-yl)amino]butyl}naphthalene-1-sulfonamide]
7 | 31900 ± 7960 | did not show any affinity | c1ccc(CNc2nc3ccccc3[nH]2)cc1 [PP 17, N-Benzyl-1H-1,3-benzimidazol-2-amine]
8 | 19800 ± 4950 | did not show any affinity | c1ccc(CCNc2nc3ccccc3[nH]2)cc1 [PP 18, N-(2-Phenylethyl)-1H-1,3-benzimidazol-2-amine]
